{
  "source": "patent US6818656B2",
  "about": "“Method and composition for treatment of irritable bowel disease” (University of Florida, priority 2001, dated 2004)",
  "key": {"[1]": {"assay": "Acute toxicity assessment, single intraperitoneal injection", "format": "in vivo", "protocol": "For the acute toxicity assessment the CHX(3,4,3)-trans was administered to female CD-1 mice (Charles River, Wilmington, Mass.) as a single intraperitoneal (IP) injection. The animals were carefully observed post-dosing and were scored 2 h after administration of the drug.\n(§1) For drug preparation and administration, the compounds were put into solution with sterile normal saline and sonicated briefly, if necessary. The drugs were made up at concentrations such that the rats received the drugs PO or SC at the rate of 1 cc per kilogram. Mice received the CHX(3,4,3)-trans IP at 1 cc per 100 grams. The solutions were made fresh the day of the study. Control animals received an equivalent amount of saline PO or SC."}, "[2]": {"system": "castor oil-induced diarrhea", "conditions": "cited from earlier work"}, "[3]": {"system": "stress-induced fecal output", "assay": "Psychological stress-induced (water avoidance) IBS model, PO administration by gavage", "format": "in vivo, rat", "conditions": "2.3 μmol/kg PO, non-fasted, stress 30 min post drug, 6-hr collection"}, "[4]": {"system": "stress-induced fecal output", "assay": "Psychological stress-induced (water avoidance) IBS model, PO administration by gavage", "format": "in vivo, rat", "conditions": "6-hr collection", "description": "as §1\n(§2) Animal care and experimental procedures were approved by the Institutional Animal Care and Use Committee. Male Sprague-Dawley rats (250-350 g, Harlan Sprague-Dawley, Indianapolis, Ind.) were housed in polycarbonate cages in a temperature- and humidity-controlled room with a 12-hour light/dark cycle. The experiments were performed at the same time of the day to decrease diurnal variability. A typical experiment involved 20 rats: 5 saline-treated controls and 5 pretreated with polyamine analogues at each of three doses as either a SC injection or a PO gavage. The rats in the SC studies and in one set of experiments involving PO administration were allowed ad libitum access to a standard rodent diet and tap water until the morning of the experiment. Stress was initiated 30 minutes post drug as described below. In another set of experiments involving PO administration, the animals were fasted overnight but were allowed free access to water. The animals were then stressed from ½ h to 2 h post-drug (data not shown). In a final experiment, non-stressed control rats were injected with saline SC and housed in individual polycarbonate cages. The fecal output (number of pellets) of the stressed and unstressed animals was recorded at 30-min intervals for a 6-h period, during which they received no food or water.\n(§3) Once the drug had been administered, the animals were housed individually in polycarbonate cages containing a clear 70×50 mm Pyrex crystallization dish (Fisher, Pittsburgh, Pa.) inverted in the center and held in place with vacuum grease. To initiate the stress, water was added to each cage to a depth of at least 4.5 cm, i.e., within 0.5 cm of the top of the Pyrex dish. To avoid contact with water, the rats stand on the glass dish for the 6 h of the study. Stool output was expressed as the total number of fecal pellets excreted over the 6-h collection period. Percent reduction was calculated by dividing the mean value from the treated animals (T) by the mean value from the control animals (C), subtracting the resulting quotient from 1.0, and multiplying by 100 [i.e., (1.0−T/C)×100].\n(§4) A one-tailed t-test assuming unequal variance was performed on the stool output data of the treated vs control (0 mg/kg) animals for each compound. A value of P<0.05 was considered significant.\nBecause an orally active compound would be desirable for the treatment of IBS, selected analogues utilizing oral administration in the same model were assessed. In the initial studies animals were utilized that had been fasted overnight. Rodents were then given the drug of interest PO by gavage and stressed ½ h, 1 h, or 2 h post-drug. Unfortunately, because of the low baseline stool output in fasted control rats, the reductions in fecal output observed upon drug administration cannot be reported with any confidence (data not shown). Thereafter, only non-fasted animals were employed and were given the agents by gavage at doses of 11.6, 23.2, 57.8, or 115.6:mol/kg 30 minutes before initiating the stress. […] At doses of 11.6 and 23.2:mol/kg, CHX(3,4,3)-trans reduced stooling by about 80% (P=0.001 and <0.001, respectively). DEHSPM was effective at a dose of […]:mol/kg (40% diminution of fecal output; P<0.01), and DE(5,4,5) was active at doses of 23.2 and 57.8:mol/kg (55 and 73% reductions in fecal output, respectively; P<0.001 for both doses)."}, "[5]": {"system": "stress-induced fecal output", "assay": "Psychological stress-induced (water avoidance) IBS model, SC administration", "format": "in vivo", "conditions": "for Stool Output: 6-h collection", "description": "as §1\nas §2, with “The animals were then stressed from ½ h to 2 h post-drug (data not shown).” left out\nas §3, with “To” for “Once the drug had been administered, the animals were housed individually in polycarbonate cages containing a clear 70×50 mm Pyrex crystallization dish (Fisher, Pittsburgh, Pa.) inverted in the center and held in place with vacuum grease. To”\nas §4\nThe psychological stress-induced IBS model involves subjecting the rats to an aversive stimulus (water) and observing the increase in fecal output over a period of time. […] Control rats received an equivalent amount of saline SC."}},
  "data": [
    {"smiles": "CCNCCCN[C@H]1CC[C@H](NCCCNCC)CC1", "note": "[Compound 12, N,N′-bis[3-(ethylamino)propyl]-trans-1,4-cyclohexanediamine]", "values": [
      {"measurement": "acute toxicity", "setting": "[1]; IP, female CD-1 mice, single dose, scored 2 h", "result": "about 150 mg/kg"},
      {"measurement": "toxic doses (neurological signs)", "setting": "[1]; IP, single dose, mice", "result": "≥ 125", "unit": "mg/kg"},
      {"measurement": "toxic dose in mice, allometrically scaled, relative to the 0.0625 mg/kg effective dose in rats", "setting": "[1]; mouse toxic dose vs rat dose of 0.0625 mg/kg", "result": "at least 1000 times"},
      {"measurement": "signs of acute toxicity in mice", "setting": "[1]; toxic doses, mice", "result": "uncoordinated movements, intention tremors, and severe motor dysfunction, especially of the hind limbs"},
      {"measurement": "doses at which signs of motor dysfunction, including seizures, were observed", "setting": "[2]; rats, rodent antidiarrheal model", "result": "≥ 1", "unit": "mg/kg"},
      {"measurement": "activity in castor oil-induced diarrhea model (in words)", "setting": "[2]; rodent", "result": "most effective of the SPM analogues tested"},
      {"measurement": "Stool Output", "setting": "[3]", "result": "9.0 ± 1.6 number of fecal pellets"},
      {"measurement": "Stool Output", "setting": "[4]; 11.6 μmol/kg PO", "result": "2.2 ± 1.3 number of fecal pellets"},
      {"measurement": "Stool Output", "setting": "[4]; 23.2 μmol/kg PO", "result": "2.0 ± 1.9 number of fecal pellets"},
      {"measurement": "Stool Output", "setting": "[5]; 0.0726 μmol/kg SC", "result": "5.4 ± 2.1 number of fecal pellets"},
      {"measurement": "Stool Output", "setting": "[5]; 0.145 μmol/kg SC", "result": "2.2 ± 1.3 number of fecal pellets"},
      {"measurement": "Stool Output", "setting": "[5]; 0.29 μmol/kg SC", "result": "0.6 ± 0.9 number of fecal pellets"},
      {"measurement": "toxic effects observed in stressed rats", "setting": "[5]; 0.58 μmol/kg SC", "result": "^gToxic effects were evident, including huddling in the corner of the cage."},
      {"measurement": "Stool Output", "setting": "[5]; 0.58 μmol/kg SC", "result": "0 ± 0 number of fecal pellets"},
      {"measurement": "toxic effects observed in stressed rats", "setting": "[5]; 1.16 μmol/kg SC", "result": "^gToxic effects were evident, including huddling in the corner of the cage."},
      {"measurement": "Stool Output", "setting": "[5]; 1.16 μmol/kg SC", "result": "0 ± 0 number of fecal pellets"},
      {"measurement": "toxic effects observed in stressed rats", "setting": "[5]; 2.3 μmol/kg SC", "result": "^gToxic effects were evident, including huddling in the corner of the cage."},
      {"measurement": "Stool Output", "setting": "[5]; 2.3 μmol/kg SC, stress 30 min post drug", "result": "0 ± 0 number of fecal pellets"},
      {"measurement": "diminution in fecal output", "setting": "[5]; 0.07 :mol/kg SC", "result": 50, "unit": "%"},
      {"measurement": "inhibition in vivo at 0.0726 µmol/kg", "setting": "[5]; Rattus norvegicus, 0.0726 μmol/kg SC, vs stressed controls, 6 h, read-out: % Reduction", "result": 52, "unit": "%"},
      {"measurement": "inhibition in vivo at 0.145 µmol/kg", "setting": "[5]; Rattus norvegicus, 0.145 μmol/kg SC, vs stressed controls, 6 h, read-out: % Reduction", "result": 80, "unit": "%"},
      {"measurement": "inhibition in vivo at 0.29 µmol/kg", "setting": "[5]; Rattus norvegicus, 0.29 μmol/kg SC, vs stressed controls, 6 h, read-out: % Reduction", "result": 95, "unit": "%"},
      {"measurement": "inhibition in vivo at 0.58 µmol/kg", "setting": "[5]; Rattus norvegicus, 0.58 μmol/kg SC, vs stressed controls, 6 h, read-out: % Reduction", "result": 100, "unit": "%"},
      {"measurement": "inhibition in vivo at 1.16 µmol/kg", "setting": "[5]; Rattus norvegicus, 1.16 μmol/kg SC, vs stressed controls, 6 h, read-out: % Reduction", "result": 100, "unit": "%"},
      {"measurement": "inhibition in vivo at 2.3 µmol/kg", "setting": "[5]; Rattus norvegicus, 2.3 μmol/kg SC, vs stressed controls, 6 h, read-out: % Reduction", "result": 100, "unit": "%"},
      {"measurement": "activity at diminishing stress-induced fecal output (in words)", "setting": "[5]; SC administration to stressed rats", "result": "most effective against stress-induced stooling, regardless of the mode of administration"},
      {"measurement": "dose needed to reduce fecal output of the stressed animals to that of the unstressed controls", "setting": "[5]; SC, rats", "result": 0.0625, "unit": "mg/kg"},
      {"measurement": "lowest dose that reduced stool output by >50% relative to the stressed controls", "setting": "[5]; SC, rats", "result": 0.03125, "unit": "mg/kg"},
      {"measurement": "1 mg/kg neurotoxic dose relative to lowest dose reducing stool output by >50%", "setting": "[5]; rats, 1 mg/kg vs 0.03125 mg/kg", "result": "greater than 30 times"}
    ]}
  ]
}
